Source: PubChem BioAssay AID2060614 (Molecular Pharmacology Branch, DTP, NCI, 2025)

Test system: 598228-144-R-J1-PDC complex spheroids, viability
Assay: Anticancer human tumor 598228-144-R-J1-PDC patient-derived serous endometrial adenocarcinoma cell line growth inhibition [CLK]
Conditions: for IC50: curve of first compound; for viability, T/C: stronger effect = lower value
Procedure, shortened: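 Patient-derived tumor cells grown as complex spheroids with HUVEC endothelial cells and mesenchymal stem cells, treated with drug combinations. Concentrations descend in half-log steps from near clinical Cmax, or from 10 microM if Cmax unknown.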

[1] = second compound 0.0316 µM, first compound 0.00949 µM
[2] = second compound 0.0316 µM, first compound 0.03 µM
[3] = second compound 0.0316 µM, first compound 0.0949 µM
[4] = second compound 0.0316 µM, first compound 0.3 µM
[5] = second compound 0.1 µM, first compound 0.00949 µM
[6] = second compound 0.1 µM, first compound 0.03 µM
[7] = second compound 0.1 µM, first compound 0.0949 µM
[8] = second compound 0.1 µM, first compound 0.3 µM
[9] = second compound 0.316 µM, first compound 0.00949 µM
[10] = second compound 0.316 µM, first compound 0.03 µM
[11] = second compound 0.316 µM, first compound 0.0949 µM
[12] = second compound 0.316 µM, first compound 0.3 µM
[13] = second compound 1 µM, first compound 0.00949 µM
[14] = second compound 1 µM, first compound 0.03 µM
[15] = second compound 1 µM, first compound 0.0949 µM
[16] = second compound 1 µM, first compound 0.3 µM
[17] = second compound 3.16 µM, first compound 0.00949 µM
[18] = second compound 3.16 µM, first compound 0.03 µM
[19] = second compound 3.16 µM, first compound 0.0949 µM
[20] = second compound 3.16 µM, first compound 0.3 µM
[21] = second compound 10 µM, first compound 0.00949 µM
[22] = second compound 10 µM, first compound 0.03 µM
[23] = second compound 10 µM, first compound 0.0949 µM
[24] = second compound 10 µM, first compound 0.3 µM
[25] = second compound 0.0316 µM, first compound 0.0316 µM
[26] = second compound 0.0316 µM, first compound 0.1 µM
[27] = second compound 0.0316 µM, first compound 0.316 µM
[28] = second compound 0.0316 µM, first compound 1 µM
[29] = second compound 0.0316 µM, first compound 3.16 µM
[30] = second compound 0.0316 µM, first compound 10 µM
[31] = second compound 0.1 µM, first compound 0.0316 µM
[32] = second compound 0.1 µM, first compound 0.1 µM
[33] = second compound 0.1 µM, first compound 0.316 µM
[34] = second compound 0.1 µM, first compound 1 µM
[35] = second compound 0.1 µM, first compound 3.16 µM
[36] = second compound 0.1 µM, first compound 10 µM
[37] = second compound 0.316 µM, first compound 0.0316 µM
[38] = second compound 0.316 µM, first compound 0.1 µM
[39] = second compound 0.316 µM, first compound 0.316 µM
[40] = second compound 0.316 µM, first compound 1 µM
[41] = second compound 0.316 µM, first compound 3.16 µM
[42] = second compound 0.316 µM, first compound 10 µM
[43] = second compound 1 µM, first compound 0.0316 µM
[44] = second compound 1 µM, first compound 0.1 µM
[45] = second compound 1 µM, first compound 0.316 µM
[46] = second compound 1 µM, first compound 1 µM
[47] = second compound 1 µM, first compound 3.16 µM
[48] = second compound 1 µM, first compound 10 µM
[49] = second compound 3.16 µM, first compound 0.0316 µM
[50] = second compound 3.16 µM, first compound 0.1 µM
[51] = second compound 3.16 µM, first compound 0.316 µM
[52] = second compound 3.16 µM, first compound 1 µM
[53] = second compound 3.16 µM, first compound 3.16 µM
[54] = second compound 3.16 µM, first compound 10 µM
[55] = second compound 10 µM, first compound 0.0316 µM
[56] = second compound 10 µM, first compound 0.1 µM
[57] = second compound 10 µM, first compound 0.316 µM
[58] = second compound 10 µM, first compound 1 µM
[59] = second compound 10 µM, first compound 3.16 µM
[60] = second compound 10 µM, first compound 10 µM
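Also: spheroids exposed to compounds for seven days before readout.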
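For viability, T/C in this document: 100% = DMSO vehicle control wells.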

C=CC(=O)Nc1cc(Nc2nccc(-c3cn(C)c4ccccc34)n2)c(OC)cc1N(C)CCN(C)C + CN1CCN(c2cc(C(=O)Nc3cc4cc(-c5cnn(C)c5)ccc4cn3)ccn2)CC1
IC50 (second compound 0.0316 µM): > 300 nM
IC50 (second compound 0.1 µM): > 300 nM
IC50 (second compound 0.316 µM): < 0.949 nM
IC50 (second compound 1 µM): < 0.949 nM
IC50 (second compound 3.16 µM): < 0.949 nM
IC50 (second compound 10 µM): < 0.949 nM
viability, T/C (second compound 0.0316 µM, first compound 0.000949 µM): 133%
viability, T/C (second compound 0.0316 µM, first compound 0.003 µM): 108%
viability, T/C [1]: 114%
viability, T/C [2]: 117%
viability, T/C [3]: 108%
viability, T/C [4]: 98.8%
viability, T/C (second compound 0.1 µM, first compound 0.000949 µM): 127%
viability, T/C (second compound 0.1 µM, first compound 0.003 µM): 126%
viability, T/C [5]: 116%
viability, T/C [6]: 112%
viability, T/C [7]: 103%
viability, T/C [8]: 91.9%
viability, T/C (second compound 0.316 µM, first compound 0.000949 µM): 19.6%
viability, T/C (second compound 0.316 µM, first compound 0.003 µM): 17%
viability, T/C [9]: 17.1%
viability, T/C [10]: 15.4%
viability, T/C [11]: 12.5%
viability, T/C [12]: 14.6%
viability, T/C (second compound 1 µM, first compound 0.000949 µM): 1.75%
viability, T/C (second compound 1 µM, first compound 0.003 µM): 2.14%
viability, T/C [13]: 6.03%
viability, T/C [14]: 1.51%
viability, T/C [15]: 1.29%
viability, T/C [16]: 3.97%
viability, T/C (second compound 3.16 µM, first compound 0.000949 µM): 1.65%
viability, T/C (second compound 3.16 µM, first compound 0.003 µM): 1.56%
viability, T/C [17]: 2.1%
viability, T/C [18]: 1.72%
viability, T/C [19]: 2.58%
viability, T/C [20]: 2.49%
viability, T/C (second compound 10 µM, first compound 0.000949 µM): 1.18%
viability, T/C (second compound 10 µM, first compound 0.003 µM): 1.02%
viability, T/C [21]: 1.77%
viability, T/C [22]: 1.25%
viability, T/C [23]: 5.91%
viability, T/C [24]: 2.52%

CC1(C)CCC(CN2CCN(c3ccc(C(=O)NS(=O)(=O)c4ccc(NCC5CCOCC5)c([N+](=O)[O-])c4)c(Oc4cnc5[nH]ccc5c4)c3)CC2)=C(c2ccc(Cl)cc2)C1 + CN1CCN(c2cc(C(=O)Nc3cc4cc(-c5cnn(C)c5)ccc4cn3)ccn2)CC1
IC50 (second compound 0.0316 µM): 7680 nM
IC50 (second compound 0.1 µM): 7690 nM
IC50 (second compound 0.316 µM): < 31.6 nM
IC50 (second compound 1 µM): < 31.6 nM
IC50 (second compound 3.16 µM): < 31.6 nM
IC50 (second compound 10 µM): < 31.6 nM
viability, T/C [25]: 138%
viability, T/C [26]: 113%
viability, T/C [27]: 111%
viability, T/C [28]: 118%
viability, T/C [29]: 114%
viability, T/C [30]: 30.9%
viability, T/C [31]: 116%
viability, T/C [32]: 121%
viability, T/C [33]: 116%
viability, T/C [34]: 124%
viability, T/C [35]: 113%
viability, T/C [36]: 31%
viability, T/C [37]: 19.3%
viability, T/C [38]: 16.8%
viability, T/C [39]: 14.4%
viability, T/C [40]: 15.5%
viability, T/C [41]: 11.9%
viability, T/C [42]: 7.07%
viability, T/C [43]: 1.25%
viability, T/C [44]: 1.59%
viability, T/C [45]: 2.76%
viability, T/C [46]: 1.46%
viability, T/C [47]: 2.58%
viability, T/C [48]: 1.73%
viability, T/C [49]: 1.65%
viability, T/C [50]: 3.1%
viability, T/C [51]: 1.66%
viability, T/C [52]: 1.86%
viability, T/C [53]: 3.99%
viability, T/C [54]: 4.73%
viability, T/C [55]: 0.92%
viability, T/C [56]: 2.13%
viability, T/C [57]: 0.62%
viability, T/C [58]: 0.79%
viability, T/C [59]: 2.58%
viability, T/C [60]: 3.9%

NC(=O)C(=Cn1cnc(-c2cc(C(F)(F)F)cc(C(F)(F)F)c2)n1)c1cncnc1 + CN1CCN(c2cc(C(=O)Nc3cc4cc(-c5cnn(C)c5)ccc4cn3)ccn2)CC1
IC50 (second compound 0.0316 µM): 236 nM
IC50 (second compound 0.1 µM): 344 nM
IC50 (second compound 0.316 µM): < 9.49 nM
IC50 (second compound 1 µM): < 9.49 nM
IC50 (second compound 3.16 µM): < 9.49 nM
IC50 (second compound 10 µM): < 9.49 nM
viability, T/C [1]: 108%
viability, T/C [2]: 109%
viability, T/C [3]: 72.9%
viability, T/C [4]: 47.6%
viability, T/C (second compound 0.0316 µM, first compound 0.949 µM): 29.3%
viability, T/C (second compound 0.0316 µM, first compound 3 µM): 37.8%
viability, T/C [5]: 114%
viability, T/C [6]: 87.4%
viability, T/C [7]: 76.9%
viability, T/C [8]: 47.7%
viability, T/C (second compound 0.1 µM, first compound 0.949 µM): 38.9%
viability, T/C (second compound 0.1 µM, first compound 3 µM): 9.13%
viability, T/C [9]: 12.9%
viability, T/C [10]: 6.08%
viability, T/C [11]: 0.74%
viability, T/C [12]: 0.62%
viability, T/C (second compound 0.316 µM, first compound 0.949 µM): 2.45%
viability, T/C (second compound 0.316 µM, first compound 3 µM): 1.39%
viability, T/C [13]: 0.59%
viability, T/C [14]: 0.85%
viability, T/C [15]: 1.1%
viability, T/C [16]: 1.03%
viability, T/C (second compound 1 µM, first compound 0.949 µM): 0.66%
viability, T/C (second compound 1 µM, first compound 3 µM): 0.41%
viability, T/C [17]: 1.32%
viability, T/C [18]: 2.21%
viability, T/C [19]: 2.27%
viability, T/C [20]: 1.81%
viability, T/C (second compound 3.16 µM, first compound 0.949 µM): 4.57%
viability, T/C (second compound 3.16 µM, first compound 3 µM): 0.46%
viability, T/C [21]: 0.86%
viability, T/C [22]: 0.87%
viability, T/C [23]: 1.32%
viability, T/C [24]: 0.79%
viability, T/C (second compound 10 µM, first compound 0.949 µM): 1.73%
viability, T/C (second compound 10 µM, first compound 3 µM): 0.39%

Nc1ccccc1NC(=O)c1ccc(CNC(=O)OCc2cccnc2)cc1 + CN1CCN(c2cc(C(=O)Nc3cc4cc(-c5cnn(C)c5)ccc4cn3)ccn2)CC1
IC50 (second compound 0.0316 µM): 1780 nM
IC50 (second compound 0.1 µM): 2170 nM
IC50 (second compound 0.316 µM): < 31.6 nM
IC50 (second compound 1 µM): < 31.6 nM
IC50 (second compound 3.16 µM): < 31.6 nM
IC50 (second compound 10 µM): < 31.6 nM
viability, T/C [25]: 125%
viability, T/C [26]: 114%
viability, T/C [27]: 93.4%
viability, T/C [28]: 68.2%
viability, T/C [29]: 32.4%
viability, T/C [30]: 3.45%
viability, T/C [31]: 121%
viability, T/C [32]: 123%
viability, T/C [33]: 97.2%
viability, T/C [34]: 71.3%
viability, T/C [35]: 41%
viability, T/C [36]: 0.32%
viability, T/C [37]: 17.1%
viability, T/C [38]: 14.1%
viability, T/C [39]: 13%
viability, T/C [40]: 10.7%
viability, T/C [41]: 1.75%
viability, T/C [42]: 0.23%
viability, T/C [43]: 1.29%
viability, T/C [44]: 1.3%
viability, T/C [45]: 1.11%
viability, T/C [46]: 1.01%
viability, T/C [47]: 1.46%
viability, T/C [48]: 0.57%
viability, T/C [49]: 1.49%
viability, T/C [50]: 3.39%
viability, T/C [51]: 1.88%
viability, T/C [52]: 1.93%
viability, T/C [53]: 1.66%
viability, T/C [54]: 0.89%
viability, T/C [55]: 0.8%
viability, T/C [56]: 0.77%
viability, T/C [57]: 1.17%
viability, T/C [58]: 1.13%
viability, T/C [59]: 2.8%
viability, T/C [60]: 2.51%
